Test results from the NIST ThermoML archive (doi:10.1016/j.jct.2009.07.002).

Test: isobaric coefficient of expansion
Conditions: Liquid, DSC with Pressure Shift

CCCCCCCO [heptan-1-ol]
isobaric coefficient of expansion
Conditions | 278.15 K | 288.15 K | 298.15 K | 308.15 K | 318.15 K | 328.15 K | 338.15 K | 348.15 K
5000 kPa | 0.000799 1/K | 0.000815 1/K | 0.000831 1/K | 0.000854 1/K | 0.000878 1/K | 0.000903 1/K | 0.000928 1/K | 0.000956 1/K
10000 kPa | 0.000779 1/K | 0.000798 1/K | 0.000811 1/K | 0.000832 1/K | 0.000854 1/K | 0.000876 1/K | 0.000901 1/K | 0.000927 1/K
15000 kPa | 0.000767 1/K | 0.000784 1/K | 0.000795 1/K | 0.000813 1/K | 0.000833 1/K | 0.000849 1/K | 0.000875 1/K | 0.000899 1/K
20000 kPa | 0.000754 1/K | 0.000769 1/K | 0.000779 1/K | 0.000796 1/K | 0.000814 1/K | 0.000831 1/K | 0.000851 1/K | 0.000872 1/K
25000 kPa | 0.000741 1/K | 0.000757 1/K | 0.000762 1/K | 0.000776 1/K | 0.000792 1/K | 0.000811 1/K | 0.00083 1/K | 0.000848 1/K
30000 kPa | 0.000726 1/K | 0.000743 1/K | 0.000747 1/K | 0.000761 1/K | 0.000775 1/K | 0.000792 1/K | 0.000809 1/K | 0.000826 1/K
35000 kPa | 0.000713 1/K | 0.00073 1/K | 0.000734 1/K | 0.000747 1/K | 0.00076 1/K | 0.000775 1/K | 0.000791 1/K | 0.000806 1/K
40000 kPa | 0.000697 1/K | 0.000716 1/K | 0.000716 1/K | 0.00073 1/K | 0.000742 1/K | 0.000756 1/K | 0.000769 1/K | 0.000786 1/K
45000 kPa | 0.00069 1/K | 0.000708 1/K | 0.000709 1/K | 0.000717 1/K | 0.00073 1/K | 0.00074 1/K | 0.000754 1/K | 0.000768 1/K
50000 kPa | 0.000682 1/K | 0.000694 1/K | 0.000695 1/K | 0.000705 1/K | 0.000714 1/K | 0.000726 1/K | 0.000741 1/K | 0.000752 1/K
55000 kPa | 0.000673 1/K | 0.000686 1/K | 0.000684 1/K | 0.000693 1/K | 0.000703 1/K | 0.000715 1/K | 0.000725 1/K | 0.000737 1/K

CCCCCCCCCO [nonan-1-ol]
isobaric coefficient of expansion
Conditions | 278.15 K | 288.15 K | 298.15 K | 308.15 K | 318.15 K | 328.15 K | 338.15 K | 348.15 K
5000 kPa | 0.000819 1/K | 0.000805 1/K | 0.000816 1/K | 0.000829 1/K | 0.000846 1/K | 0.000863 1/K | 0.000886 1/K | 0.000912 1/K
10000 kPa | 0.000795 1/K | 0.000791 1/K | 0.000798 1/K | 0.00081 1/K | 0.000826 1/K | 0.00084 1/K | 0.000858 1/K | 0.000879 1/K
15000 kPa | 0.000786 1/K | 0.000772 1/K | 0.000782 1/K | 0.000792 1/K | 0.000801 1/K | 0.000815 1/K | 0.000831 1/K | 0.000853 1/K
20000 kPa | 0.000759 1/K | 0.000759 1/K | 0.000762 1/K | 0.000773 1/K | 0.000785 1/K | 0.000792 1/K | 0.000807 1/K | 0.000827 1/K
25000 kPa | 0.000741 1/K | 0.000743 1/K | 0.000745 1/K | 0.000753 1/K | 0.000764 1/K | 0.000775 1/K | 0.000789 1/K | 0.000806 1/K
30000 kPa | 0.000733 1/K | 0.000728 1/K | 0.000732 1/K | 0.000736 1/K | 0.000748 1/K | 0.000759 1/K | 0.000773 1/K | 0.000787 1/K
35000 kPa | 0.000719 1/K | 0.000716 1/K | 0.00072 1/K | 0.000723 1/K | 0.000732 1/K | 0.000743 1/K | 0.000754 1/K | 0.000768 1/K
40000 kPa | 0.000704 1/K | 0.000705 1/K | 0.000705 1/K | 0.00071 1/K | 0.000715 1/K | 0.000728 1/K | 0.000736 1/K | 0.000749 1/K
45000 kPa | 0.000693 1/K | 0.000698 1/K | 0.000693 1/K | 0.000695 1/K | 0.000702 1/K | 0.000715 1/K | 0.000722 1/K | 0.000734 1/K
50000 kPa | 0.000685 1/K | 0.000691 1/K | 0.000682 1/K | 0.000684 1/K | 0.00069 1/K | 0.0007 1/K | 0.000708 1/K | 0.000719 1/K
55000 kPa | 0.000672 1/K | 0.000677 1/K | 0.000672 1/K | 0.000673 1/K | 0.000678 1/K | 0.000687 1/K | 0.000695 1/K | 0.000705 1/K

CCO [ethanol]
isobaric coefficient of expansion
Conditions | 278.15 K | 288.15 K | 298.15 K | 308.15 K | 318.15 K | 328.15 K | 338.15 K | 348.15 K
5000 kPa | 0.00102 1/K | 0.00103 1/K | 0.00106 1/K | 0.00109 1/K | 0.00112 1/K | 0.00116 1/K | 0.00121 1/K | 0.00127 1/K
10000 kPa | 0.000988 1/K | 0.00101 1/K | 0.00103 1/K | 0.00105 1/K | 0.00109 1/K | 0.00112 1/K | 0.00116 1/K | 0.00122 1/K
15000 kPa | 0.000966 1/K | 0.000983 1/K | 0.001 1/K | 0.00102 1/K | 0.00105 1/K | 0.00108 1/K | 0.00112 1/K | 0.00116 1/K
20000 kPa | 0.000948 1/K | 0.000956 1/K | 0.000973 1/K | 0.000994 1/K | 0.00102 1/K | 0.00105 1/K | 0.00108 1/K | 0.00112 1/K
25000 kPa | 0.000928 1/K | 0.000936 1/K | 0.000952 1/K | 0.000971 1/K | 0.000988 1/K | 0.00102 1/K | 0.00105 1/K | 0.00108 1/K
30000 kPa | 0.000908 1/K | 0.000918 1/K | 0.000929 1/K | 0.000944 1/K | 0.000966 1/K | 0.000988 1/K | 0.00102 1/K | 0.00105 1/K
35000 kPa | 0.000892 1/K | 0.000899 1/K | 0.000908 1/K | 0.000921 1/K | 0.000942 1/K | 0.000962 1/K | 0.000988 1/K | 0.00102 1/K
40000 kPa | 0.000882 1/K | 0.000875 1/K | 0.000887 1/K | 0.000903 1/K | 0.000918 1/K | 0.000936 1/K | 0.000958 1/K | 0.000984 1/K
45000 kPa | 0.000863 1/K | 0.000866 1/K | 0.000871 1/K | 0.000883 1/K | 0.000898 1/K | 0.000912 1/K | 0.000935 1/K | 0.000959 1/K
50000 kPa | 0.000852 1/K | 0.00085 1/K | 0.000853 1/K | 0.000865 1/K | 0.000882 1/K | 0.000894 1/K | 0.000911 1/K | 0.000938 1/K
55000 kPa | 0.000839 1/K | 0.000831 1/K | 0.000839 1/K | 0.000848 1/K | 0.000863 1/K | 0.000877 1/K | 0.000891 1/K | 0.000915 1/K
